Data from patent US10603384B2, “Pharmaceutical composition containing an antivirally active dihydroquinazoline derivative” (AICURIS GMBH & CO. KG, priority 2012, dated 2020).

Tested on: HCMV AD 169 RV-HG
Assay: HCMV fluorescence-reduction test (GFP-RA)
Assay type: cell-based, human cytomegalovirus
Conditions: Human betaherpesvirus 5, AD169, NHDF, 168 h, read-out: EC50 (GFP-RA)
Text: The in vitro effects of the compositions according to the present invention on the replication of the HCMV (human cytomegalovirus) can be seen in the following antiviral assay:
The solution from Example 8 is used without further dilution in the test. The composition from Example 6A is used as a 50-millimolar (mM) solution in dimethyl sulphoxide (DMSO). Ganciclovir®, Foscarnet® or Cidofovir® can be used as reference compositions. One day before the beginning of the test, 1.5×10^4 human foreskin fibroblasts (NHDF cells)/well are seeded in 200 μl of cell culture medium in Wells B2-G11 of 96-well plates (black with transparent floor). The wells along the edges of each 96-well plate are filled with 200 μl of medium only in order to prevent edge effects. […] The virus used is a recombinant HCMV which has integrated an expression cassette for green fluorescence protein (GFP) in the virus genome (HCMV AD 169 RV-HG [E. M. Borst, K. Wagner, A. Binz, B. Sodeik, and M. Messerle, 2008, J. Virol. 82:2065-2078.]). […] The GFP intensity of each well in a 96-well plate is then determined using a fluorescence scanner (FluoBox; Bayer Technology Services GmbH; filter settings: GFP, Ex 480 nm, Em 520 nm). The measured values thus obtained can be used to determine the EC50 of an anti-HCMV: […]

Structure (SMILES) | EC50
COc1cccc(N2CCN(C3=Nc4c(F)cccc4[C@H](CC(=O)O)N3c3cc(C(F)(F)F)ccc3OC)CC2)c1 [Example 6A, (S)-{8-fluoro-2-[4-(3-methoxyphenyl)piperazine-1-yl]-3-(2-methoxy-5-trifluoromethylphenyl)-3,4-dihydroquinazoline-4-yl}acetic acid] | 2.2 ± 0.2 nM
Nc1nc(O)c2ncn(COC(CO)CO)c2n1 [Ganciclovir] | 2500 ± 400 nM
